Assay results: US8415469B2, “Compounds and methods for kinase modulation, and indications therefor” (Plexxikon Inc., priority 2005, dated 2013)

How the values were obtained:
Type in all cases: biochemical
[1] = target: T1, B-Raf (Homo sapiens, UniProt P15056); test: AlphaScreen kinase assay, B-Raf; conditions: read-out: IC50, activity toward kinase B-Raf
T1 construct: purchased Upstate Biotechnology

[2] = target: T2, B-Raf V600E (Homo sapiens, UniProt P15056, V600E); test: AlphaScreen kinase assay, B-Raf V600E; conditions: read-out: IC50, activity toward kinase B-Raf V600E
T2 construct: P4254. pFastBacBD-CDC37 BRAF D437-K722-X, V600E; His6 with pFastBac HT leader (TEV site) (N); made in house; host or cells: Sf9 (baculovirus; chaperone CDC37 co-expressed)
T2 sequence (P15056 with tags, fused parts or gaps V600E): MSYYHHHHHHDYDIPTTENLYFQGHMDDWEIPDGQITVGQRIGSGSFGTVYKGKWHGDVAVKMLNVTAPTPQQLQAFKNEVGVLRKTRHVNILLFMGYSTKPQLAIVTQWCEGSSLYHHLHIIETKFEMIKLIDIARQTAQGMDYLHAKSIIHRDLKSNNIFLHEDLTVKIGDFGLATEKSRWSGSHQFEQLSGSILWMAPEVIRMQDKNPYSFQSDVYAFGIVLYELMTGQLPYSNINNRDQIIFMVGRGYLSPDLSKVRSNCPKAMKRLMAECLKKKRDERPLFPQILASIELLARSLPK

[3] = target: T3, Btk (Homo sapiens, UniProt Q06187); test: Z'-Lyte FRET kinase assay (Invitrogen), Btk; conditions: read-out: IC50, activity toward kinase Btk
T3 construct: purchased Invitrogen (assay run by Invitrogen)
Description: For example, direct radiometric, indirect FRET or AlphaScreen assays may be used to assess the level of phosphorylation of a substrate in the presence of test compounds in order to determine the inhibitory affect of the compound on the kinase. […] For these assays, compounds of the invention were screened by Invitrogen using Z′-Lyte™ kinase assay.
Briefly, the Invitrogen kinase assay involves use of a specific peptide substrate optimized for each kinase, containing a fluorophore at each end that make up the FRET pair. The peptide sensitivity to proteolytic cleavage depends on phosphorylation of the peptide. Non-phosphorylated peptide is cleaved by a protease while peptide phosphorylated by the kinase is not cleaved. Cleavage of the peptide disrupts the FRET between the donor (coumarin) and acceptor (fluorescein) fluorophores, resulting in an increase in the ratio of donor emission to acceptor emission. The emission ratio of coumarin to fluorescein is used to assess the reaction progress. […] Thus, the assay involves a kinase reaction in the presence of varying concentrations of a given compound, a development reaction with site specific protease, and detection of the fluorescent emission ratio of coumarin and fluorscein. […] Reaction conditions for each kinase are determined to provide optimal reaction times, incubation temperature, kinase and ATP concentrations. Test samples are made up in 1× kinase buffer (50 mM HEPES pH 7.5, 50 mM MgCl2, 5 mM EGTA, 0.05% BRIJ-35) and compound at desired concentration prepared in DMSO such that the final DMSO is 1%. […] All kinase except for MAP2K1 were at 10 μM ATP in the kinase reaction, while MAP2K1 was at 100 μM. Samples are mixed and the kinase reaction is incubated 1 hour at room temperature, after which 5 μl of development solution is added and mixed. After incubation for another 1 hour at room temperature, 5 μl of stop reagent is added to each sample and mixed. The fluorescence signals are measured to determine the emission ratio.

[4] = target: T4, c-Raf-1 (Homo sapiens, UniProt P04049); test: AlphaScreen kinase assay, c-Raf-1; conditions: read-out: IC50, activity toward kinase c-Raf-1
T4 construct: purchased Upstate Biotechnology

[5] = target: T5, FGFR1 (Homo sapiens, UniProt P11362, C488A/C584S); test: AlphaScreen kinase assay, FGFR1; conditions: read-out: IC50, activity toward kinase FGFR
T5 construct: P1351.pET N6 BI-PTP FGFR A458-E765-X C488A, C584S; made in house; host or cells: E. coli (PTP1B co-expressed)
T5 sequence (P11362 458-765 C488A/C584S): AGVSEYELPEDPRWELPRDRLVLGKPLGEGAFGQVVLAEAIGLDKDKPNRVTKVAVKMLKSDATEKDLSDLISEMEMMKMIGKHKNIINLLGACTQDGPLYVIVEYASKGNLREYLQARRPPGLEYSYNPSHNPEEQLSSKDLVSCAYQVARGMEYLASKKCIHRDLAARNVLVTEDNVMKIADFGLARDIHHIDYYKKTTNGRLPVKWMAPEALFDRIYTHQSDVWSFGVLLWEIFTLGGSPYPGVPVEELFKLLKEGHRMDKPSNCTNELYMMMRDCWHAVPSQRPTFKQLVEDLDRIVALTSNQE

[6] = target: T6, Fms (Homo sapiens, UniProt P07333); test: AlphaScreen kinase assay, Fms; conditions: read-out: IC50, activity toward kinase Fms
T6 construct: purchased Upstate Biotechnology

[7] = target: T7, Jnk1 (Homo sapiens, UniProt P45983); test: AlphaScreen kinase assay, Jnk1; conditions: read-out: IC50, activity toward kinase Jnk1
T7 construct: purchased Upstate Biotechnology
T7 sequence (P45983 whole entry): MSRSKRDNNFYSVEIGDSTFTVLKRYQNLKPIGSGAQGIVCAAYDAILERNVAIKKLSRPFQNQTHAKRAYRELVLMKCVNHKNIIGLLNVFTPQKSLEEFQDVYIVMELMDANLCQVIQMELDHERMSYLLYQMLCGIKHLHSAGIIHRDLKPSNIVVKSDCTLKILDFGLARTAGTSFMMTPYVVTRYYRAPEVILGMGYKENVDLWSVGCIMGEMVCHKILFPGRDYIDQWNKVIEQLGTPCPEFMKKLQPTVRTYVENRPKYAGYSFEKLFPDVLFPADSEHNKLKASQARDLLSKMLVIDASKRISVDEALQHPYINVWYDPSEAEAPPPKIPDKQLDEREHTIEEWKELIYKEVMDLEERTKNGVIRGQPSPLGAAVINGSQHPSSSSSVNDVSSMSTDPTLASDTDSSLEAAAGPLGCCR

[8] = target: T8, Jnk2 (Homo sapiens, UniProt P45984); test: AlphaScreen kinase assay, Jnk2; conditions: read-out: IC50, activity toward kinase Jnk2
T8 construct: purchased Roche Protein Expression Group (Indianapolis, IN)
Outline: (§1)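 Here, phosphorylation of a biotin-tagged peptide was sensed by proximity of streptavidin donor and antibody-bearing acceptor beads. Test compounds covered 8 concentrations by 1:3 serial dilution of 20 mM DMSO stocks.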

[9] = target: T9, Jnk3 (Homo sapiens, UniProt P53779); test: AlphaScreen kinase assay, Jnk3; conditions: read-out: IC50, activity toward kinase Jnk3
T9 construct: purchased Upstate Biotechnology

[10] = target: T10, Kit (Homo sapiens, UniProt P10721); test: AlphaScreen kinase assay, Kit; conditions: read-out: IC50, activity toward kinase Kit
T10 construct: P1332.N6 BI PTP KIT M552-K948-X COD; His6 (N); made in house; host or cells: E. coli (PTP1B co-expressed)

[11] = target: T11, MAP2K1 (Homo sapiens, UniProt Q02750); test: Z'-Lyte FRET kinase assay (Invitrogen), MAP2K1; conditions: read-out: IC50, activity toward kinase MAP2K1
T11 construct: purchased Invitrogen (assay run by Invitrogen)

[12] = target: T12, Ret (Homo sapiens, UniProt P07949); test: AlphaScreen kinase assay, Ret; conditions: read-out: IC50, activity toward kinase Ret
T12 construct: P1378.pET-SF BI-PTP RET H661-R1012 HIS; made in house
T12 sequence (P07949 with tags, fused parts or gaps): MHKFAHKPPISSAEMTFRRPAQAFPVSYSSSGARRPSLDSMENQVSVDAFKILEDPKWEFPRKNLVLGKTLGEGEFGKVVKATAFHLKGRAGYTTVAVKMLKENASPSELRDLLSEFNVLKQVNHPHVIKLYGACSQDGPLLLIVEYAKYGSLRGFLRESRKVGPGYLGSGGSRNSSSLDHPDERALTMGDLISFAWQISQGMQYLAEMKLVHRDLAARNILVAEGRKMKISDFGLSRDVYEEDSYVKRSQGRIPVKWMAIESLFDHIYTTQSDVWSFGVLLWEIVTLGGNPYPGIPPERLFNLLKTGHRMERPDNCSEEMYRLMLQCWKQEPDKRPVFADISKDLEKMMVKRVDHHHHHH
Description: (§2) AlphaScreen assay was used to screen additional kinases. The assay is similarly dependent on the phosphorylation of a peptide substrate. In this assay, an antibody that recognizes phosphorylated substrate is bound to an acceptor bead. The peptide substrate is attached to biotin, which binds to a donor head that contains streptavidin. Thus phosphorylated substrate is bound by antibody and streptavidin, bringing the donor and acceptor heads into close proximity when kinase is not inhibited. The donor produces singlet oxygen which results in emission from the acceptor when they are in close proximity. Conversely, when kinase is inhibited, the donor and acceptor beads are not associated and the emission from the acceptor is reduced.
(§3) AlphaScreen assays were done using compounds dissolved in DMSO to a concentration of 20 mM. The compounds were diluted accordingly to the desired final concentrations in each sample well, using 1:3 serial dilution for a total of 8 concentration points. Plates were prepared such that each kinase reaction is 20 μl in 1× kinase buffer, 5% DMSO and 10 μM ATP. After incubation of the kinase reaction for 1 hour at room temperature, 5 μl of donor beads in stop buffer (50 mM EDTA in 1× kinase buffer) was added, the sample was mixed and incubated for 20 minutes at room temperature before adding 5 μl of acceptor beads in stop buffer. The samples were incubated for 60 minutes at room temperature and the signal per well was read on AlphaQuest reader.

[13] = target: T13, Src (Homo sapiens, UniProt P12931); test: AlphaScreen kinase assay, Src; conditions: read-out: IC50, activity toward kinase Src
T13 construct: P1144. pET-N6 BI-PTP SRC V86-L536-X; made in house

[14] = target: Gsk3β (Homo sapiens, UniProt P49841); test: AlphaScreen kinase assay, Gsk3β; conditions: read-out: IC50, activity toward kinase Gsk3β
Outline: as §1

[15] = target: MAP4K4 (Homo sapiens, UniProt O95819); test: AlphaScreen kinase assay, MAP4K4; conditions: read-out: IC50, activity toward kinase MAP4K4
MAP4K4, sequence (O95819 whole entry): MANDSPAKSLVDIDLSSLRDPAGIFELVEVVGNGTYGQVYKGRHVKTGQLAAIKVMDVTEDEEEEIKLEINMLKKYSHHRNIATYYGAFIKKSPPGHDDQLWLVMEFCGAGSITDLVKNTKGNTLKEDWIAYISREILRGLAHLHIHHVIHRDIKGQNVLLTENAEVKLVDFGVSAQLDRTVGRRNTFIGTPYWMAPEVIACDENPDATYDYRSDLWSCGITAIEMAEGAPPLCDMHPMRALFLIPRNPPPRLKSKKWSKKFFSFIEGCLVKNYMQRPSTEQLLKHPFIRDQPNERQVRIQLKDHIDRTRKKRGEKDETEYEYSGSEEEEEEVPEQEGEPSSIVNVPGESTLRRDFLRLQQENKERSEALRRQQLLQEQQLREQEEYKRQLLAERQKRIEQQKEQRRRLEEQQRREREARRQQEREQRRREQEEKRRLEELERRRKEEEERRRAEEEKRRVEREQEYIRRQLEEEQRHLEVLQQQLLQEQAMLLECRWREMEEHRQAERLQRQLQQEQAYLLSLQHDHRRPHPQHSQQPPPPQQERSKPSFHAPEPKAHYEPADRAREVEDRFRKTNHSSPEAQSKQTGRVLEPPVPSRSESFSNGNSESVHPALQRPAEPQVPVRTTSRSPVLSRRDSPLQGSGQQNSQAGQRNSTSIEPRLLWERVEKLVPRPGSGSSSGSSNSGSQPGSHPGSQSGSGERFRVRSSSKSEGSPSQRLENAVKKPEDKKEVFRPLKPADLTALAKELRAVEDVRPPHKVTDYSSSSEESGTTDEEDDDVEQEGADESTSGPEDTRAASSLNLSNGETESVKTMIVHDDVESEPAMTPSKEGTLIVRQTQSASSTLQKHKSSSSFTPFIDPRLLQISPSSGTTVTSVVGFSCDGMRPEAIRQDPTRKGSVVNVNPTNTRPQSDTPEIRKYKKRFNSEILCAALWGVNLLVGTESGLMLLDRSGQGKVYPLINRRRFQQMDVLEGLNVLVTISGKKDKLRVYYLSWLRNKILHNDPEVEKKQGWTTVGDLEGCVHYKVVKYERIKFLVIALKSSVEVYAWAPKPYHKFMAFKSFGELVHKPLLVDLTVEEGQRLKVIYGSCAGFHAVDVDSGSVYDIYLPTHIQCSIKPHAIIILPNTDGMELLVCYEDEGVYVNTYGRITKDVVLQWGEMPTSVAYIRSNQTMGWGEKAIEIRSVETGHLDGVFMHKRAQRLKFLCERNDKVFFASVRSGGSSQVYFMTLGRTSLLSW
Description: as §2, §3

[16] = target: IGF1R (Homo sapiens, UniProt P08069); test: AlphaScreen kinase assay, IGF1R; conditions: read-out: IC50, activity toward kinase IGF1R
IGF1R, sequence (P08069 31-1367): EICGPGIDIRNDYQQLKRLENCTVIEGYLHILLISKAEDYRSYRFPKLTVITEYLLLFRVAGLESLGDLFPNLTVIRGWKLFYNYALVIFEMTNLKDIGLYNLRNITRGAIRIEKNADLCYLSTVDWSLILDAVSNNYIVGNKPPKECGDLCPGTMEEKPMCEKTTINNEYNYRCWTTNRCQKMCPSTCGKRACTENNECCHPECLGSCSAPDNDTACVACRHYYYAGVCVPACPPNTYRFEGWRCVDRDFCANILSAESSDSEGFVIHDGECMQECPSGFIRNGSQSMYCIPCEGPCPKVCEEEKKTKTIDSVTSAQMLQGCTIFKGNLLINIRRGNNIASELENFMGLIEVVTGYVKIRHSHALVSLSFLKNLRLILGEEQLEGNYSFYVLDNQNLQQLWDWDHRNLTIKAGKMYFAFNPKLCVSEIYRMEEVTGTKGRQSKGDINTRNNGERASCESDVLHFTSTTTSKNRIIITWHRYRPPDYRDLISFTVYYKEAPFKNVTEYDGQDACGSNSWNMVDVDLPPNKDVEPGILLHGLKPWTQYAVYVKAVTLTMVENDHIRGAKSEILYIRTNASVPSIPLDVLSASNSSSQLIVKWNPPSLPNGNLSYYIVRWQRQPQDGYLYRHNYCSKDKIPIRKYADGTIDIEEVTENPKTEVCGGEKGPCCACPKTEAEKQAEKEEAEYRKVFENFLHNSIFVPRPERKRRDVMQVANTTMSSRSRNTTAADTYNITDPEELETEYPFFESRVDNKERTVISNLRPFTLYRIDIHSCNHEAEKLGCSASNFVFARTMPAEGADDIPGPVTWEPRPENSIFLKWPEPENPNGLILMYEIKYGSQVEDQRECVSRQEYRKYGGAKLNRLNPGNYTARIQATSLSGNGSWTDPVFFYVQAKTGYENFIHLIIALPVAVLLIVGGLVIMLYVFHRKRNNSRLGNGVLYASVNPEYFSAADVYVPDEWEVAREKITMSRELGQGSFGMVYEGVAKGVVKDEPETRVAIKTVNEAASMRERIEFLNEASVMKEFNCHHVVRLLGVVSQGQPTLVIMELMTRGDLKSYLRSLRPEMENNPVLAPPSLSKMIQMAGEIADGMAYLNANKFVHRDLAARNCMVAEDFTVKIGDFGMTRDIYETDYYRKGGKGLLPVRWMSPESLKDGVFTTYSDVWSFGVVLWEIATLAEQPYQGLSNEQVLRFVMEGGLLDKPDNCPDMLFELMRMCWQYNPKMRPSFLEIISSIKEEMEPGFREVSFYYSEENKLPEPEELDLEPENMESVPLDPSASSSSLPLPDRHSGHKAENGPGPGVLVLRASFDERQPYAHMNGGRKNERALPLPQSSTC

[17] = target: T14, Fak (Homo sapiens, UniProt Q05397); test: AlphaScreen kinase assay, Fak; conditions: read-out: IC50, activity toward kinase Fak
T14 construct: P1358.pFastBacHtb FAK S411-Q686-X; His6 with pFastBacHTb leader (TEV site) (N); made in house; host or cells: Sf9 (baculovirus)
T14 sequence (Q05397 411-686): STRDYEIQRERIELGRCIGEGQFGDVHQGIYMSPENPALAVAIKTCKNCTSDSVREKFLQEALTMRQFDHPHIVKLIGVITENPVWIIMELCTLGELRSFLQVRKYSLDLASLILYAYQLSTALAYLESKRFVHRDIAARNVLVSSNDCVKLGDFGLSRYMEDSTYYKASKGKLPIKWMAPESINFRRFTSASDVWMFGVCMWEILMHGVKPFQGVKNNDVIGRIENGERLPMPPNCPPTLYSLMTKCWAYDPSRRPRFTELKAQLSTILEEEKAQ

[18] = target: T15, Flt1 (Homo sapiens, UniProt P17948); test: AlphaScreen kinase assay, Flt1; conditions: read-out: IC50, activity toward kinase Flt1
T15 construct: P1826.pETN6 BI-PTP FLT1 M799-D1165-X WT; His6 (N); made in house; host or cells: E. coli (PTP1B co-expressed)
T15 sequence (P17948 with tags, fused parts or gaps): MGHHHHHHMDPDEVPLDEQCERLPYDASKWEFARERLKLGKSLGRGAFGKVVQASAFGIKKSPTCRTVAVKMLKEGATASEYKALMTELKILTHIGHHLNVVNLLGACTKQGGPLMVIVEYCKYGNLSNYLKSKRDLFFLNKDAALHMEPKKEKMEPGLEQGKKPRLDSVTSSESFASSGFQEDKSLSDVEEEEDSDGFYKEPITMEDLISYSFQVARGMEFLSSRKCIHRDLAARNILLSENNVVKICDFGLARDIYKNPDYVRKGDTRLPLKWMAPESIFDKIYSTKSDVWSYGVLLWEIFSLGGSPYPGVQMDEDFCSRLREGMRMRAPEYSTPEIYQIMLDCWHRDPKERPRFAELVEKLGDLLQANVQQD

[19] = target: T16, Met (Homo sapiens, UniProt P08581); test: AlphaScreen kinase assay, Met; conditions: read-out: IC50, activity toward kinase Met
T16 construct: P1818.pETN6 BI-PTP MET G1056-G1364-X WT; His6 (N); made in house; host or cells: E. coli (PTP1B co-expressed)
T16 sequence (P08581 with tags, fused parts or gaps): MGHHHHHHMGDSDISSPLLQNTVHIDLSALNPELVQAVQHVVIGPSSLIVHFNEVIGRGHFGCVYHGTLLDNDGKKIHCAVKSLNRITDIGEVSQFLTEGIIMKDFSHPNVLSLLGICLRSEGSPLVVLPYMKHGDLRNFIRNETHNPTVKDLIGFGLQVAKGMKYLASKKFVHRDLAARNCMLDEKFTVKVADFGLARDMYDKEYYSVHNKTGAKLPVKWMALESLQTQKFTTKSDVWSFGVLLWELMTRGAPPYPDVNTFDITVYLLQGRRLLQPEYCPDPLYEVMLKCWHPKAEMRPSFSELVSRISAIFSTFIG
Outline: as §1

[20] = target: T17, Pyk2 (Homo sapiens, UniProt Q14289); test: AlphaScreen kinase assay, Pyk2; conditions: read-out: IC50, activity toward kinase Pyk2
T17 construct: purchased Upstate Biotechnology

Measured: IC50

T1 sequence (P15056 whole entry): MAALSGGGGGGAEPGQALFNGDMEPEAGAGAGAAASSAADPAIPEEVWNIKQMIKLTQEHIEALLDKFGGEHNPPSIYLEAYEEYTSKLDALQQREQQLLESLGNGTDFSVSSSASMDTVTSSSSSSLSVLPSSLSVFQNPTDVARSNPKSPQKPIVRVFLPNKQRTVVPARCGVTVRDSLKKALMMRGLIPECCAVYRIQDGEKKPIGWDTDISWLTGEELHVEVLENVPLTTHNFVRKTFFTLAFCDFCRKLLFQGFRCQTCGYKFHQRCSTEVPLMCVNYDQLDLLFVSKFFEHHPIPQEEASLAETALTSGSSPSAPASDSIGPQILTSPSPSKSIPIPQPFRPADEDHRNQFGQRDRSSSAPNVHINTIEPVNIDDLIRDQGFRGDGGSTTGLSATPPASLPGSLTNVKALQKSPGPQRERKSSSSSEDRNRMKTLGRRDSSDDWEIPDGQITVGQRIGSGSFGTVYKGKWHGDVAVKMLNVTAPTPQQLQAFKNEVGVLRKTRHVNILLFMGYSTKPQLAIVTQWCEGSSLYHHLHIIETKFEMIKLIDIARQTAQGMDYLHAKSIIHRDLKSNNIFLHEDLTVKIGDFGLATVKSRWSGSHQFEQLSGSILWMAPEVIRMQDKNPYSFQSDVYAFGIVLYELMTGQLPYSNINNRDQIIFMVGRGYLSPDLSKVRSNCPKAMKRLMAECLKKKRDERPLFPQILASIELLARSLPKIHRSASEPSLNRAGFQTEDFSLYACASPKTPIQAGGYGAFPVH

CS(=O)(=O)Nc1ccc(F)c(C(=O)c2c[nH]c3ncc(-c4cccnc4)cc23)c1 [Compound P-0079, N-[4-Fluoro-3-(5-pyridin-3-yl-1H-pyrrolo[2,3-b]pyridine-3-carbonyl)-phenyl]-methanesulfonamide]
not listed: [17] | [18] | [19] | [20]
≤ 10 µM: all other assays above

CS(=O)(=O)Nc1ccc(F)c(C(=O)c2c[nH]c3ncc(-c4cccnc4)cc23)c1F [Compound P-0700, N-[2,4-Difluoro-3-(5-pyridin-3-yl-1H-pyrrolo[2,3-b]pyridine-3-carbonyl)-phenyl]-methanesulfonamide]
not listed: [3] | [6] | [9] | [11]
≤ 10 µM: all other assays above

CS(=O)(=O)Nc1cccc(-c2cnc3[nH]cc(C(=O)c4c(F)ccc(NS(C)(=O)=O)c4F)c3c2)c1 [Compound P-0746, N-{2,4-Difluoro-3-[5-(3-methanesulfonylamino-phenyl)-1H-pyrrolo[2,3-b]pyridine-3-carbonyl]-phenyl}-methanesulfonamide]
≤ 10 µM: [1] | [2] | [4] | [5] | [8] | [19] | [12] | [16]

CC(C)S(=O)(=O)Nc1ccc(F)c(C(=O)c2c[nH]c3ncc(-c4cccnc4)cc23)c1F [Compound P-0850, propane-2-sulfonic acid [2,4-difluoro-3-(5-pyridin-3-yl-1H-pyrrolo[2,3-b]pyridin-3-carbonyl)-phenyl]-amide]
not listed: [3] | [8] | [9] | [11] | [12] | [18] | [19]
≤ 10 µM: all other assays above

COc1ccc(F)c(C(=O)c2c[nH]c3ncc(-c4cccc(NC(C)=O)c4)cc23)c1F [Compound P-1390, N-{3-[3-(2,6-Difluoro-3-methoxy-benzoyl)-1H-pyrrolo[2,3-b]pyridin-5-yl]-phenyl}-acetamide]
≤ 10 µM: [1] | [2] | [3] | [4] | [17] | [5] | [6] | [7] | [10] | [13] | [16]
